Reference: PubChem BioAssay AID180 (DTP/NCI, 2004)
Values joined by “and” are separate entries in the source; they are usually repeats but may differ in a detail not shown here. Identical values can stand only once.

Tested on: BDF1 mice, Adenocarcinoma 755 s.c., tumor weight T/C
Test: NCI In Vivo Anticancer Drug Screen. Data for tumor model Adenocarcinoma 755 (subcutaneous) in B6D2F1 (BDF1) mice
Conditions: endpoint: mean tumor weight, higher = larger tumour
Method in brief: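 Tumor-bearing mice receive test compound while controls get vehicle alone. Antitumor effect is scored from survival or tumor dimensions as a T/C quotient.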

Q: How did the T/C (dose: 0.01 mg/kg/injection, schedule: Q01DX011 (ip), vehicle: carboxymethylcellulose (CMC)) turn out when `S=c1nc[nH]c2nc[nH]c12` was run?
A: 161 % of control

Q: And the T/C (dose: 0.4 mg/kg/injection, schedule: Q01DX011 (ip), vehicle: carboxymethylcellulose (CMC))?
A: 110 % of control

Q: And the T/C (dose: 0.5 mg/kg/injection, schedule: Q01DX011 (ip), vehicle: saline)?
A: 13 % of control

Q: What about the T/C (dose: 0.69 mg/kg/injection, schedule: Q01DX011 (ip), vehicle: carboxymethylcellulose (CMC)) of the same molecule?
A: 9 % of control

Q: What about the T/C (dose: 0.75 mg/kg/injection, schedule: Q01DX011 (ip), vehicle: carboxymethylcellulose (CMC)) of the same molecule?
A: 4 % of control

Q: And the T/C (dose: 0.87 mg/kg/injection, schedule: Q01DX011 (ip), vehicle: saline)?
A: 21 % of control

Q: What about the T/C (dose: 0.9 mg/kg/injection, schedule: Q01DX011 (ip), vehicle: carboxymethylcellulose (CMC)) of the same molecule?
A: 31 % of control

Q: What about the T/C (dose: 1.0 mg/kg/injection, schedule: Q01DX007 (ip), vehicle: carboxymethylcellulose (CMC)) of the same molecule?
A: 23 % of control

Q: What about the T/C (dose: 1.0 mg/kg/injection, schedule: Q01DX011 (ip), vehicle: saline) of the same molecule?
A: 2 % of control and 16 % of control and 27 % of control

Q: What about the T/C (dose: 1.07 mg/kg/injection, schedule: Q01DX011 (ip), vehicle: carboxymethylcellulose (CMC)) of the same molecule?
A: 32 % of control

Q: And the T/C (dose: 1.25 mg/kg/injection, schedule: Q01DX011 (ip), vehicle: carboxymethylcellulose (CMC))?
A: 3 % of control and 11 % of control

Q: What about the T/C (dose: 1.38 mg/kg/injection, schedule: Q01DX011 (ip), vehicle: carboxymethylcellulose (CMC)) of the same molecule?
A: 4 % of control

Q: What about the T/C (dose: 1.5 mg/kg/injection, schedule: Q01DX011 (ip), vehicle: alkali diluted with saline) of the same molecule?
A: 8 % of control

Q: And the T/C (dose: 1.5 mg/kg/injection, schedule: Q01DX011 (ip), vehicle: saline)?
A: 3 % of control and 7 % of control

Q: What about the T/C (dose: 1.75 mg/kg/injection, schedule: Q01DX011 (ip), vehicle: saline) of the same molecule?
A: 13 % of control

Q: What about the T/C (dose: 1.75 mg/kg/injection, schedule: Q01DX011 (oral), vehicle: saline) of the same molecule?
A: 22 % of control

Q: And the T/C (dose: 1.8 mg/kg/injection, schedule: Q01DX011 (ip), vehicle: carboxymethylcellulose (CMC))?
A: 4 % of control and 15 % of control

Q: What about the T/C (dose: 2.0 mg/kg/injection, schedule: Q01DX007 (ip), vehicle: carboxymethylcellulose (CMC)) of the same molecule?
A: 2 % of control and 9 % of control

Q: What about the T/C (dose: 2.0 mg/kg/injection, schedule: Q01DX011 (ip), vehicle: alkali diluted with saline) of the same molecule?
A: 2 % of control

Q: What about the T/C (dose: 2.14 mg/kg/injection, schedule: Q01DX011 (ip), vehicle: carboxymethylcellulose (CMC)) of the same molecule?
A: 9 % of control

Q: And the T/C (dose: 2.5 mg/kg/injection, schedule: Q01DX011 (oral), vehicle: alkali diluted with saline)?
A: 4 % of control

Q: What about the T/C (dose: 2.67 mg/kg/injection, schedule: Q01DX011 (ip), vehicle: carboxymethylcellulose (CMC)) of the same molecule?
A: 20 % of control

Q: What about the T/C (dose: 2.75 mg/kg/injection, schedule: Q01DX011 (ip), vehicle: carboxymethylcellulose (CMC)) of the same molecule?
A: 3 % of control

Q: What about the T/C (dose: 3.0 mg/kg/injection, schedule: Q01DX011 (ip), vehicle: carboxymethylcellulose (CMC)) of the same molecule?
A: 1 % of control and 2 % of control and 6 % of control

Q: What about the T/C (dose: 3.0 mg/kg/injection, schedule: Q01DX011 (ip), vehicle: saline) of the same molecule?
A: 1 % of control

Q: What about the T/C (dose: 3.5 mg/kg/injection, schedule: Q01DX011 (ip), vehicle: saline) of the same molecule?
A: 4 % of control

Q: And the T/C (dose: 3.5 mg/kg/injection, schedule: Q01DX011 (oral), vehicle: saline)?
A: 8 % of control

Q: What about the T/C (dose: 4.0 mg/kg/injection, schedule: Q01DX011 (ip), vehicle: carboxymethylcellulose (CMC)) of the same molecule?
A: 7 % of control

Q: And the T/C (dose: 4.0 mg/kg/injection, schedule: Q01DX011 (ip), vehicle: saline)?
A: 5 % of control

Q: What about the T/C (dose: 4.28 mg/kg/injection, schedule: Q01DX011 (ip), vehicle: carboxymethylcellulose (CMC)) of the same molecule?
A: 4 % of control and 9 % of control

Q: And the T/C (dose: 5.0 mg/kg/injection, schedule: Q01DX007 (ip), vehicle: carboxymethylcellulose (CMC))?
A: 8 % of control

Q: And the T/C (dose: 5.0 mg/kg/injection, schedule: Q01DX011 (ip), vehicle: alkali diluted with saline)?
A: 4 % of control

Q: And the T/C (dose: 5.35 mg/kg/injection, schedule: Q01DX011 (ip), vehicle: carboxymethylcellulose (CMC))?
A: 7 % of control and 17 % of control

Q: And the T/C (dose: 5.5 mg/kg/injection, schedule: Q01DX011 (ip), vehicle: carboxymethylcellulose (CMC))?
A: 4 % of control and 6 % of control

Q: And the T/C (dose: 6.0 mg/kg/injection, schedule: Q01DX011 (ip), vehicle: alkali diluted with saline)?
A: 4 % of control

Q: What about the T/C (dose: 6.0 mg/kg/injection, schedule: Q01DX011 (ip), vehicle: saline) of the same molecule?
A: 1 % of control and 5 % of control

Q: And the T/C (dose: 7.0 mg/kg/injection, schedule: Q01DX011 (oral), vehicle: saline)?
A: 10 % of control

Q: And the T/C (dose: 7.13 mg/kg/injection, schedule: Q01DX011 (ip), vehicle: carboxymethylcellulose (CMC))?
A: 8 % of control

Q: And the T/C (dose: 10.0 mg/kg/injection, schedule: Q01DX011 (ip), vehicle: alkali diluted with saline)?
A: 1 % of control and 9 % of control

Q: And the T/C (dose: 10.0 mg/kg/injection, schedule: Q01DX011 (oral), vehicle: alkali diluted with saline)?
A: 1 % of control

Q: And the T/C (dose: 10.7 mg/kg/injection, schedule: Q01DX011 (ip), vehicle: carboxymethylcellulose (CMC))?
A: 7 % of control and 8 % of control

Q: And the T/C (dose: 11.0 mg/kg/injection, schedule: Q01DX011 (ip), vehicle: carboxymethylcellulose (CMC))?
A: 4 % of control

Q: And the T/C (dose: 12.5 mg/kg/injection, schedule: Q01DX011 (ip), vehicle: carboxymethylcellulose (CMC))?
A: 1 % of control

Q: What about the T/C (dose: 15.0 mg/kg/injection, schedule: Q01DX011 (ip), vehicle: carboxymethylcellulose (CMC)) of the same molecule?
A: 4 % of control

Q: What about the T/C (dose: 15.0 mg/kg/injection, schedule: Q01DX011 (ip), vehicle: saline) of the same molecule?
A: 1 % of control and 4 % of control

Q: And the T/C (dose: 20.0 mg/kg/injection, schedule: Q01DX011 (ip), vehicle: alkali diluted with saline)?
A: 1 % of control and 4 % of control

Q: What about the T/C (dose: 21.4 mg/kg/injection, schedule: Q01DX011 (ip), vehicle: carboxymethylcellulose (CMC)) of the same molecule?
A: 6 % of control

Q: What about the T/C (dose: 22.0 mg/kg/injection, schedule: Q01DX011 (ip), vehicle: carboxymethylcellulose (CMC)) of the same molecule?
A: 3 % of control

Q: What about the T/C (dose: 25.0 mg/kg/injection, schedule: Q01DX011 (ip), vehicle: alkali diluted with saline) of the same molecule?
A: 2 % of control and 11 % of control

Q: And the T/C (dose: 25.0 mg/kg/injection, schedule: Q01DX011 (ip), vehicle: carboxymethylcellulose (CMC))?
A: 4 % of control

Q: And the T/C (dose: 25.0 mg/kg/injection, schedule: Q01DX011 (ip), vehicle: saline)?
A: 3 % of control

Q: What about the T/C (dose: 30.0 mg/kg/injection, schedule: Q01DX011 (ip), vehicle: carboxymethylcellulose (CMC)) of the same molecule?
A: 4 % of control and 6 % of control

Q: And the T/C (dose: 35.0 mg/kg/injection, schedule: Q01DX011 (ip), vehicle: carboxymethylcellulose (CMC))?
A: 5 % of control

Q: And the T/C (dose: 40.0 mg/kg/injection, schedule: Q01DX011 (ip), vehicle: alkali diluted with saline)?
A: 2 % of control

Q: What about the T/C (dose: 40.0 mg/kg/injection, schedule: Q01DX011 (ip), vehicle: carboxymethylcellulose (CMC)) of the same molecule?
A: 5 % of control

Q: What about the T/C (dose: 44.0 mg/kg/injection, schedule: Q01DX007 (ip), vehicle: carboxymethylcellulose (CMC)) of the same molecule?
A: 3 % of control

Q: What about the T/C (dose: 44.0 mg/kg/injection, schedule: Q01DX011 (ip), vehicle: alkali diluted with saline) of the same molecule?
A: 2 % of control

Q: What about the T/C (dose: 44.0 mg/kg/injection, schedule: Q01DX011 (ip), vehicle: carboxymethylcellulose (CMC)) of the same molecule?
A: 3 % of control and 5 % of control

Q: And the T/C (dose: 50.0 mg/kg/injection, schedule: Q01DX011 (ip), vehicle: alkali diluted with saline)?
A: 4 % of control

Q: What about the T/C (dose: 60.0 mg/kg/injection, schedule: Q01DX011 (ip), vehicle: carboxymethylcellulose (CMC)) of the same molecule?
A: 4 % of control

Q: And the T/C (dose: 62.0 mg/kg/injection, schedule: Q01DX011 (ip), vehicle: saline)?
A: 2 % of control

Q: What about the T/C (dose: 65.0 mg/kg/injection, schedule: Q01DX011 (ip), vehicle: alkali diluted with saline) of the same molecule?
A: 1 % of control

Q: What about the T/C (dose: 80.0 mg/kg/injection, schedule: Q01DX011 (ip), vehicle: alkali diluted with saline) of the same molecule?
A: 2 % of control and 4 % of control

Q: What about the T/C (dose: 100.0 mg/kg/injection, schedule: Q01DX011 (ip), vehicle: alkali diluted with saline) of the same molecule?
A: 1 % of control

Q: And the T/C (dose: 100.0 mg/kg/injection, schedule: Q01DX011 (ip), vehicle: saline)?
A: 1 % of control

Q: What about the T/C (dose: 320.0 mg/kg/injection, schedule: Q01DX001 (ip), vehicle: alkali diluted with saline) of the same molecule?
A: 5 % of control

Q: What about the T/C (dose: 320.0 mg/kg/injection, schedule: Q01DX001 (oral), vehicle: alkali diluted with saline) of the same molecule?
A: 19 % of control

Q: And the T/C (dose: 320.0 mg/kg/injection, schedule: Q07DX002 (ip), vehicle: alkali diluted with saline)?
A: 4 % of control

Q: And the T/C (dose: 480.0 mg/kg/injection, schedule: Q01DX001 (oral), vehicle: alkali diluted with saline)?
A: 22 % of control

Q: And the T/C (dose: 480.0 mg/kg/injection, schedule: Q03DX004 (oral), vehicle: alkali diluted with saline)?
A: 1 % of control

Q: What about the T/C (dose: 480.0 mg/kg/injection, schedule: Q07DX002 (oral), vehicle: alkali diluted with saline) of the same molecule?
A: 2 % of control

Q: What about the T/C (dose: 640.0 mg/kg/injection, schedule: Q01DX001 (oral), vehicle: alkali diluted with saline) of the same molecule?
A: 10 % of control

Q: What about the T/C (dose: 640.0 mg/kg/injection, schedule: Q07DX002 (oral), vehicle: alkali diluted with saline) of the same molecule?
A: 2 % of control

Q: And the T/C (dose: 125.0 micrograms/kg/injection, schedule: Q01DX011 (ip), vehicle: saline)?
A: 11 % of control

Q: What about the T/C (dose: 250.0 micrograms/kg/injection, schedule: Q01DX011 (ip), vehicle: saline) of the same molecule?
A: 20 % of control

Q: And the T/C (dose: 500.0 micrograms/kg/injection, schedule: Q01DX011 (ip), vehicle: saline)?
A: 9 % of control

Q: And the T/C (dose: 1000.0 micrograms/kg/injection, schedule: Q01DX011 (ip), vehicle: saline)?
A: 3 % of control

Q: For `CCCn1cnc2c(SC(C)C)nc(N)nc21`, which T/C (dose: 3.1 mg/kg/injection, schedule: Q01DX011 (ip), vehicle: methylcellulose (MC)) is on record?
A: 16 % of control

Q: And the T/C (dose: 6.25 mg/kg/injection, schedule: Q01DX011 (ip), vehicle: methylcellulose (MC))?
A: 2 % of control

Q: `CC(=O)NCC(=O)O` was tested. Which T/C (dose: 100.0 mg/kg/injection, schedule: Q01DX011 (ip), vehicle: other) did it give?
A: 106 % of control

Q: What about the T/C (dose: 200.0 mg/kg/injection, schedule: Q01DX011 (ip), vehicle: other) of the same molecule?
A: 74 % of control

Q: And the T/C (dose: 800.0 mg/kg/injection, schedule: Q01DX011 (ip), vehicle: other)?
A: 87 % of control
